Reference: paper PMC9311539, “Antibacterial Activity against Clinical Isolates and In Vivo Efficacy of Coralmycins” (Antibiotics, 2022)
In brackets after ≈: the same amount, converted by molar mass. Entries after “also recorded” stand apart in the source; their conditions may differ. Read-outs that look alike come from different tables or passages of the source.

Key:
VRE = experiment: MIC, broth microdilution, clinical isolates: VRE; type: cell-based, vancomycin-resistant Enterococcus
Experimental: (§1) To assess the MICs for antibiotic susceptibility, Gram-positive bacteria isolated from human clinical specimens were obtained from several general hospitals in Seoul, Korea, during 2002–2018. Staphylococcus aureus Giorgio and Streptococcus pneumoniae ATCC49619 were used to test in vivo efficacies against […], in mice.
(§2) The MICs of the antimicrobial agents were determined by a twofold microdilution broth method, as described by the Clinical and Laboratory Standards Institute. Briefly, test organisms were grown on Mueller–Hinton agar (MHA, BD Difco, Sparks, MD, USA) plates, subcultured into cation-adjusted Mueller–Hinton broth (CAMHB, BD Difco, Sparks, MD, USA), and incubated for 18 h at 35 °C. For S. pneumoniae culture, 5% sheep blood (Hanil Comed, Seongnam, Korea) was added. The cultured bacteria were diluted using phosphate-buffered saline (PBS) to achieve a bacterial cell density of approximately 5 × 10^6 CFU/mL. All test organisms were loaded into 96-well plates containing serial dilutions of the antimicrobial agents to achieve a concentration of 5 × 10^4 CFU/well. The plates were incubated at 35 °C for 18–20 h and examined for bacterial growth.

[1] = tested on: Vancomycin-sensitive E. faecium; experiment: MIC, broth microdilution, clinical isolates: vancomycin-sensitive E. faecium; type: cell-based, Enterococcus faecium
Experimental: as §1, §2

S. pneumoniae ATCC49619 [2] = experiment: Neutropenic mouse respiratory tract infection model; type: in vivo, female ICR mice
Experimental: (§3) For the respiratory tract infection model, neutropenic mice were anesthetized and intranasally inoculated with a 50 μL suspension of S. pneumoniae ATCC49619 (4.4 × 10^8 CFU/mL). For the thigh infection model, the neutropenic mice were administered an intramuscular injection of a 100 μL suspension of S. aureus Giorgio (1 × 10^6 CFU/mL) into both thighs. For both models, four mice were included in each group. At 2 h after infection, two mice were sacrificed, and the infected thighs or lungs (n = 4) were excised to determine the initial bacterial levels. […] At 24 h after infection, the mice were sacrificed by cervical dislocation; their thighs or lungs were removed, homogenized, serially diluted with saline, and plated onto MHA to count the number of bacteria remaining. The number of viable bacterial cells (CFU) in the thighs or lungs of vehicle- and drug-treated mice was determined.

S. aureus Giorgio [3] = experiment: Neutropenic mouse thigh infection model; type: in vivo, female ICR mice
Experimental: as §3

S. aureus Giorgio [4] = experiment: Time-kill assay, S. aureus Giorgio; type: cell-based, Staphylococcus aureus
Experimental: (§4) Time-kill analysis was performed by the NCCLS M26-A method. The test organisms (S. aureus Giorgio, S. pneumoniae ATCC49619, MRSA CCARM 3167, and VRE 3) incubated in CAMHB for 18 h at 35 °C were diluted to 10^5 CFU/mL with fresh CAMHB, and the diluted cultures were preincubated for 2 h. For S. pneumoniae culture, 5% sheep blood (Hanil Comed, Seongnam, Korea) was added. […] Culture aliquots (0.1 mL) were removed after 0, 2, 4, 6 and 24 h of incubation, and serial 10-fold dilutions were prepared in saline as needed. The numbers of viable cells were determined on drug-free MHA plates after 20 h of incubation. A compound was considered bactericidal if the original inoculum was reduced by 3 log CFU/mL (99.9%) at each concentration or was considered bacteriostatic if the inoculum was reduced by 0–3 log CFU/mL.

S. pneumoniae = experiment: MIC, broth microdilution, clinical isolates: S. pneumoniae; type: cell-based, Streptococcus pneumoniae
Experimental: as §1, §2

[5] = tested on: CNS (coagulase-negative staphylococci); experiment: MIC, broth microdilution, clinical isolates: CNS; type: cell-based
Experimental: as §1, §2

S. aureus Giorgio [6] = experiment: MIC against S. aureus Giorgio; type: cell-based, Staphylococcus aureus
Experimental: as §2

MRSA CCARM 3167 [7] = experiment: Time-kill assay, MRSA CCARM 3167; type: cell-based, Staphylococcus aureus
Experimental: as §4

S. pneumoniae ATCC49619 [8] = experiment: MIC against S. pneumoniae ATCC49619; type: cell-based; conditions: Streptococcus pneumoniae, ATCC 25922 / ATCC 49619, printed as S. pneumoniae ATCC 25922; read-out: MIC
Experimental: as §2

[9] = tested on: Vancomycin-sensitive E. faecalis; experiment: MIC, broth microdilution, clinical isolates: vancomycin-sensitive E. faecalis; type: cell-based, Enterococcus faecalis
Experimental: as §1, §2

MSSA = experiment: MIC, broth microdilution, clinical isolates: MSSA; type: cell-based; conditions: Staphylococcus aureus, 26 clinical isolates
Experimental: as §1, §2

MRSA CCARM 3167 [10] = experiment: MIC against MRSA CCARM 3167; type: cell-based; conditions: Staphylococcus aureus; read-out: MIC
Experimental: as §2

MRSA = experiment: MIC, broth microdilution, clinical isolates: MRSA; type: cell-based, Staphylococcus aureus
Experimental: as §1, §2

S. pneumoniae ATCC49619 [11] = experiment: Time-kill assay, S. pneumoniae ATCC49619; type: cell-based, Streptococcus pneumoniae
Experimental: as §4

VRE 3 [12] = experiment: Time-kill assay, VRE 3; type: cell-based, vancomycin-resistant Enterococcus
Experimental: as §4

VRE 3 [13] = experiment: MIC against VRE 3; type: cell-based, vancomycin-resistant Enterococcus; conditions: Enterococcus, read-out: MIC
Experimental: as §2

[14] = second trial, s.c. 100 mg/kg bid

With `CO[C@@H](C(N)=O)[C@H](NC(=O)c1ccc(NC(=O)c2ccc([N+](=O)[O-])cc2)cc1)C(=O)Nc1ccc(C(=O)Nc2ccc(C(=O)Nc3ccc(C(=O)O)c(O)c3OC(C)C)c(O)c2OC(C)C)cc1` [Coralmycin A, coralmycin A] the MIC90 (VRE; 46 clinical isolates) was 1 µg/mL (≈ 1.07 µM), the MIC50 (VRE; Enterococcus, VRE, 46 clinical isolates, read-out: MIC50) was 0.5 µg/mL (≈ 0.534 µM) and the MIC90 (VRE; Enterococcus, 46 VRE isolates, read-out: MIC90) was 1 µg/mL (≈ 1.07 µM). It also gave an MIC90 ([1]; 32 clinical isolates) of 0.5 µg/mL (≈ 0.534 µM), an MIC50 ([1]; Enterococcus faecium, 32 clinical isolates, read-out: MIC50) of 0.25 µg/mL (≈ 0.267 µM) and an MIC90 ([1]; vancomycin-sensitive Enterococcus faecium, read-out: MIC90) of 0.5 µg/mL (≈ 0.534 µM). For the same compound, the “in vivo effect (bacteriostatic or bactericidal)” value (“in vivo effect” below) (S. pneumoniae ATCC49619 [2]; 4 mg/kg bid s.c.) was “bacteriostatic effects; also recorded: static effect”, the “in vivo effect” value (S. pneumoniae ATCC49619 [2]; 20 mg/kg bid s.c.) was “bacteriostatic effects; also recorded: static effect” and the “in vivo effect” value (S. pneumoniae ATCC49619 [2]; 100 mg/kg bid s.c.) was “significant bactericidal effects”. The “reduction of bacterial burden in the lungs compared to the 24-h control group” value (“reduction of bacterial burden” below) (S. pneumoniae ATCC49619 [2]; first experiment, s.c. 4 mg/kg bid) was 1.43 log10 CFU, the “reduction of bacterial burden” value (S. pneumoniae ATCC49619 [2]; first experiment, s.c. 20 mg/kg bid) was 1.81 log10 CFU and the “antibacterial effect in respiratory tract infection model” value (S. pneumoniae ATCC49619 [2]; first experiment, s.c. 4 and 20 mg/kg at 3 and 6 h after infection) was “significant antibacterial effects”. The “reduction of bacterial burden” value (S. pneumoniae ATCC49619 [2]; second trial, s.c. 4 mg/kg bid) was 1.45 log10 CFU, the “reduction of bacterial burden” value (S. pneumoniae ATCC49619 [2]; second trial, s.c. 20 mg/kg bid) was 1.88 log10 CFU and the “reduction of bacterial burden” value (S. pneumoniae ATCC49619 [2]; [14]) was 3.02 log10 CFU. The “reduction of the starting bacterial burden compared to the 2-h control group” value (S. pneumoniae ATCC49619 [2]; [14]) was 1.34 log10 CFU/lung, the “antibacterial effect in thigh infection model” value (S. aureus Giorgio [3]; 20 mg/kg bid) was “almost no antibacterial effect” and the “antibacterial effect in thigh infection model” value (S. aureus Giorgio [3]; s.c. 4 and 20 mg/kg at 3 and 6 h after infection) was “almost no antibacterial effect”. The time-kill activity (S. aureus Giorgio [4]; 0.5× MIC (Figure S4)) was “bacteriostatic (considered bacteriostatic if the inoculum was reduced by 0–3 log CFU/mL)”, the time-kill activity (S. aureus Giorgio [4]; 1× MIC) was “bactericidal (considered bactericidal if the original inoculum was reduced by 3 log CFU/mL (99.9%) at each concentration)” and the time-kill activity (S. aureus Giorgio [4]; 2× and 4× MIC, 24 h) was “bactericidal (considered bactericidal if the original inoculum was reduced by 3 log CFU/mL (99.9%) at each concentration)”. It also gave an MIC90 (S. pneumoniae; 27 clinical isolates) of 1 µg/mL (≈ 1.07 µM), an MIC90 (S. pneumoniae; Streptococcus pneumoniae, 27 S. pneumoniae isolates, read-out: MIC90) of 1 µg/mL (≈ 1.07 µM) and an MIC50 (S. pneumoniae; Streptococcus pneumoniae, 27 clinical isolates, read-out: MIC50) of 0.25 µg/mL (≈ 0.267 µM). The MIC90 ([5]; 31 clinical isolates) was 1 µg/mL (≈ 1.07 µM), the MIC50 ([5]; 31 clinical isolates, read-out: MIC50) was 0.25 µg/mL (≈ 0.267 µM) and the MIC90 ([5]; 31 coagulase-negative staphylococci isolates, read-out: MIC90) was 1 µg/mL (≈ 1.07 µM). For the same compound, the MIC (S. aureus Giorgio [6]) was 3 ng/mL (≈ 0.00321 µM), the MIC (S. aureus Giorgio [6]; Staphylococcus aureus, read-out: MIC) was 6 ng/mL (≈ 0.00641 µM) and the time-kill activity (MRSA CCARM 3167 [7]; 1× MIC) was “bactericidal (considered bactericidal if the original inoculum was reduced by 3 log CFU/mL (99.9%) at each concentration)”. The time-kill activity (MRSA CCARM 3167 [7]; 2× and 4× MIC, 24 h) was “bactericidal (considered bactericidal if the original inoculum was reduced by 3 log CFU/mL (99.9%) at each concentration)”, the MIC (S. pneumoniae ATCC49619 [8]) was 10 µg/mL (≈ 10.7 µM) and the MIC90 ([9]; 32 clinical isolates) was 2 µg/mL (≈ 2.14 µM). The MIC50 ([9]; Enterococcus faecalis, 32 clinical isolates, read-out: MIC50) was 1 µg/mL (≈ 1.07 µM), the MIC90 ([9]; vancomycin-sensitive Enterococcus faecalis, read-out: MIC90) was 2 µg/mL (≈ 2.14 µM) and the MIC50 (MSSA; read-out: MIC50) was 0.5 µg/mL (≈ 0.534 µM). It also gave an MIC90 (MSSA; read-out: MIC90) of 1 µg/mL (≈ 1.07 µM), an MIC (MRSA CCARM 3167 [10]) of 0.01 µg/mL (≈ 0.0107 µM) and an MIC90 (MRSA; 42 clinical isolates) of 1 µg/mL (≈ 1.07 µM). For the same compound, the MIC50 (MRSA; Staphylococcus aureus, MRSA, 42 clinical isolates, read-out: MIC50) was 1 µg/mL (≈ 1.07 µM), the MIC90 (MRSA; Staphylococcus aureus, 42 MRSA isolates, read-out: MIC90) was 1 µg/mL (≈ 1.07 µM) and the time-kill activity (S. pneumoniae ATCC49619 [11]; 0.5× MIC (Figure S4)) was “bacteriostatic (considered bacteriostatic if the inoculum was reduced by 0–3 log CFU/mL)”. For the same compound, the time-kill activity (S. pneumoniae ATCC49619 [11]; 1× MIC) was “bactericidal (considered bactericidal if the original inoculum was reduced by 3 log CFU/mL (99.9%) at each concentration)”, the time-kill activity (S. pneumoniae ATCC49619 [11]; 2× and 4× MIC, 24 h) was “bactericidal (considered bactericidal if the original inoculum was reduced by 3 log CFU/mL (99.9%) at each concentration)” and the time-kill activity (VRE 3 [12]; 1× MIC) was “bactericidal (considered bactericidal if the original inoculum was reduced by 3 log CFU/mL (99.9%) at each concentration)”. For the same compound, the time-kill activity (VRE 3 [12]; 2× and 4× MIC, 24 h) was “bactericidal (considered bactericidal if the original inoculum was reduced by 3 log CFU/mL (99.9%) at each concentration)” and the MIC (VRE 3 [13]) was 0.5 µg/mL (≈ 0.534 µM).
